This note sets out measurements from ChEMBL document CHEMBL5108015, “4,6-Disubstituted-1H-Indazole-4-Amine derivatives with immune-chemotherapy effect and in vivo antitumor activity” (Eur J Med Chem, 2022).

Each structure is given as a SMILES string. Activity calls are given as the source filed them. The rule behind the calls is not given here.

Data set [1] relates to H22. Briefly: Cytotoxicity against mouse H22 cells assessed as inhibition of cell growth incubated for 24 hrs by MTT assay. Format: functional, cell-based. Conditions: H22, 24 h.
Data set [2] has as its target Serine/threonine-protein kinase pim-2 (Homo sapiens) (UniProt Q9P1W9). Briefly: Inhibition of human PIM-2 at 2 uM by DiscoveryX Kinomescan assay relative to control.
Data set [3] deals with Serine/threonine-protein kinase pim-1 (Homo sapiens) (UniProt P11309). Briefly: Inhibition of human PIM-1 at 2 uM by DiscoveryX Kinomescan assay relative to control.
The target of data set [4] is Serine/threonine-protein kinase B-raf (Homo sapiens) (UniProt P15056). Briefly: Inhibition of human B-Raf at 2 uM by DiscoveryX Kinomescan assay relative to control.
For data set [5], the system named is HepG2. Description: Cytotoxicity against human HepG2 cells assessed as inhibition of cell growth incubated for 24 hrs by MTT assay. In kind it is functional, cell-based. Conditions: HepG2, 24 h.
The subject of data set [6] is B16. Briefly: Cytotoxicity against mouse B16 cells assessed as inhibition of cell growth incubated for 24 hrs by MTT assay. Format: functional, cell-based. Conditions: B16, 24 h.
The target of data set [7] is RAF proto-oncogene serine/threonine-protein kinase (Homo sapiens) (UniProt P04049). Description: Inhibition of human c-Raf at 2 uM by DiscoveryX Kinomescan assay relative to control.
The target of data set [8] is Vascular endothelial growth factor receptor 2 (Homo sapiens) (UniProt P35968). Briefly: Inhibition of human KDR at 2 uM by DiscoveryX Kinomescan assay relative to control.
Data set [9] addresses DNA-dependent protein kinase catalytic subunit (Homo sapiens) (UniProt P78527). Description: Inhibition of human DNA-PK at 2 uM by DiscoveryX Kinomescan assay relative to control.
In data set [10] the target is T1, Indoleamine 2,3-dioxygenase 1 (Homo sapiens, UniProt P14902). Description: Inhibition of N-terminal hexa-histidine tagged human IDO1 (12 to 403 residues) expressed in Escherichia coli Transetta (DE3) using L-tryptophan as substrate at 100 uM preincubated with enzyme for 10 mins followed by substrate addition and measured after 30 to 60 mins by microplate reader analysis relative to control. Conditions: time 40-70 min.
Target sequence in this assay (P14902 whole entry, looked up, the tested form may be a part): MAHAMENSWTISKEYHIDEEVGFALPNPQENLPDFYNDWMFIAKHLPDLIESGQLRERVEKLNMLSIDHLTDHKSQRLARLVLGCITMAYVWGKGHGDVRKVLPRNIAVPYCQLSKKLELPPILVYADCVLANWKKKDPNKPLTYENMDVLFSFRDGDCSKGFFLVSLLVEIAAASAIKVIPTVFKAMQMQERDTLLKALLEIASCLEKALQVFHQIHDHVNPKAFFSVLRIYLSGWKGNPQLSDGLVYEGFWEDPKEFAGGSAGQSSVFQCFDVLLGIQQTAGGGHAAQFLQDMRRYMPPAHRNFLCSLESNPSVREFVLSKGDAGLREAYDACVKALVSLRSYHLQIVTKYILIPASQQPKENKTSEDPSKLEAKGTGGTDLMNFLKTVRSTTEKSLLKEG

Data set [11] concerns the target Platelet-derived growth factor receptor alpha (Homo sapiens) (UniProt P16234). Briefly: Inhibition of human PDGFRalpha at 2 uM by DiscoveryX Kinomescan assay relative to control.
In data set [12] the target is Tyrosine-protein kinase JAK2 (Homo sapiens) (UniProt O60674). Description: Inhibition of human JAK2 at 2 uM by DiscoveryX Kinomescan assay relative to control.
A short description of data set [13]: Cytotoxicity against […] cells assessed as inhibition of cell growth incubated for 24 hrs by MTT assay. In kind it is functional, cell-based. Conditions: Mus musculus, Hepa1-6, 24 h.
The target in data set [14] is Tyrosine-protein kinase Yes (Homo sapiens) (UniProt P07947). Description: Inhibition of human YES at 2 uM by DiscoveryX Kinomescan assay relative to control.
The target of data set [15] is Tyrosine-protein kinase JAK1 (Homo sapiens) (UniProt P23458). Description: Inhibition of human JAK1 at 2 uM by DiscoveryX Kinomescan assay relative to control.
The target in data set [16] is Tyrosine-protein kinase receptor UFO (Homo sapiens) (UniProt P30530). Description: Inhibition of human AXL at 2 uM by DiscoveryX Kinomescan assay relative to control.
Data set [17] has as its target T1, Indoleamine 2,3-dioxygenase 1. Briefly: Inhibition of N-terminal hexa-histidine tagged human IDO1 (12 to 403 residues) expressed in Escherichia coli Transetta (DE3) using L-tryptophan as substrate at 10 uM preincubated with enzyme for 10 mins followed by substrate addition and measured after 30 to 60 mins by microplate reader analysis relative to control. As to conditions: time 40-70 min.
Target sequence in this assay (P14902 whole entry, looked up, the tested form may be a part): as above

For data set [18], the target named is Tyrosine-protein kinase JAK3 (Homo sapiens) (UniProt P52333). Briefly: Inhibition of human JAK3 at 2 uM by DiscoveryX Kinomescan assay relative to control.
For data set [19], the target named is T1, Indoleamine 2,3-dioxygenase 1. Briefly: Inhibition of N-terminal hexa-histidine tagged human IDO1 (12 to 403 residues) expressed in Escherichia coli Transetta (DE3) using L-tryptophan as substrate preincubated with enzyme for 10 mins followed by substrate addition and measured after 30 to 60 mins by microplate reader analysis.
Target sequence in this assay (P14902 whole entry, the tested form may be a part): as the sequence (P14902 whole entry, looked up, the tested form may be a part) above
Data set [20] deals with T2, Tryptophan 2,3-dioxygenase (Homo sapiens, UniProt P48775). Briefly: Inhibition of N-terminal hexa-histidine tagged human TDO (19 to 388 residues) expressed in Escherichia coli Transetta (DE3) using L-tryptophan as substrate preincubated with enzyme for 10 mins followed by substrate addition and measured after 30 to 60 mins by microplate reader analysis.
Target sequence in this assay (P48775 whole entry, the tested form may be a part): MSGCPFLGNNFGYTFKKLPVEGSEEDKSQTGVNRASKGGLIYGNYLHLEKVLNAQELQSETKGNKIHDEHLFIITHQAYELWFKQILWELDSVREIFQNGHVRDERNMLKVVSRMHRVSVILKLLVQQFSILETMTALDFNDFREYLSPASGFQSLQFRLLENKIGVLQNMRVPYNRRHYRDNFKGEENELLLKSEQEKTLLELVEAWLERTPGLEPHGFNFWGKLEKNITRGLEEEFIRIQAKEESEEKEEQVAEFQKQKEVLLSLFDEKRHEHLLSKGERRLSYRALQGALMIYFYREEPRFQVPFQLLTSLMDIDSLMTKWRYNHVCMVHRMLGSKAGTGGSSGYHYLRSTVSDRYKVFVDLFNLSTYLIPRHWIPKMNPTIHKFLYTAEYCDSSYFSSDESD
Data set [21] concerns Jurkat. Description: Cytotoxicity against human Jurkat cells assessed as inhibition of cell growth incubated for 24 hrs by MTT assay. In kind it is functional, cell-based.
In data set [22] the target is Mast/stem cell growth factor receptor Kit (Homo sapiens) (UniProt P10721). Description: Inhibition of human c-KIT at 2 uM by DiscoveryX Kinomescan assay relative to control.
For data set [23], the target named is Tyrosine-protein kinase BTK (Homo sapiens) (UniProt Q06187). Briefly: Inhibition of human BTK at 2 uM by DiscoveryX Kinomescan assay relative to control.
Data set [24] has as its target T2, Tryptophan 2,3-dioxygenase. Briefly: Inhibition of N-terminal hexa-histidine tagged human TDO (19 to 388 residues) expressed in Escherichia coli Transetta (DE3) using L-tryptophan as substrate at 10 uM preincubated with enzyme for 10 mins followed by substrate addition and measured after 30 to 60 mins by microplate reader analysis relative to control. Conditions: time 40-70 min.
Target sequence in this assay (P48775 whole entry, looked up, the tested form may be a part): as the sequence (P48775 whole entry, the tested form may be a part) above

For data set [25], the target named is Receptor-type tyrosine-protein kinase FLT3 (Homo sapiens) (UniProt P36888). Description: Inhibition of human FLT3 at 2 uM by DiscoveryX Kinomescan assay relative to control.
The subject of data set [26] is Receptor-type tyrosine-protein kinase FLT3 (Homo sapiens), P36888 [D835Y]. Briefly: Inhibition of human FLT3 D835Y mutant at 2 uM by DiscoveryX Kinomescan assay relative to control.
The subject of data set [27] is MOLM-13. Description: Cytotoxicity against human MOLM-13 cells assessed as inhibition of cell growth incubated for 24 hrs by MTT assay. Format: functional, cell-based. As to conditions: MOLM-13, 24 h.
Data set [28] concerns the target T2, Tryptophan 2,3-dioxygenase. Briefly: Inhibition of N-terminal hexa-histidine tagged human TDO (19 to 388 residues) expressed in Escherichia coli Transetta (DE3) using L-tryptophan as substrate at 100 uM preincubated with enzyme for 10 mins followed by substrate addition and measured after 30 to 60 mins by microplate reader analysis relative to control. As to conditions: time 40-70 min.
Target sequence in this assay (P48775 whole entry, looked up, the tested form may be a part): as the sequence (P48775 whole entry, the tested form may be a part) above

For data set [29], the target named is Tyrosine-protein kinase Lyn (Homo sapiens) (UniProt P07948). Description: Inhibition of human LYN at 2 uM by DiscoveryX Kinomescan assay relative to control.
Data set [30] relates to CT26. Description: Antitumor activity against mouse CT26 cells implanted in BALB/c mouse assessed as inhibition of tumor volume at 30 mg/kg, IG administered every one day for 9 days and measured every 3 days by vernier caliper analysis relative to control. Format: functional. Conditions: CT26, po, 216 h, time 9 day.
The test system of data set [31] is CT26. Briefly: Antitumor activity against mouse CT26 cells implanted in BALB/c mouse assessed as inhibition of tumor volume at 50 mg/kg, IG administered every one day for 9 days and measured every 3 days by vernier caliper analysis relative to control. As to conditions: CT26, po, 216 h, time 9 day. In kind it is functional.
The nature of data set [32]: Toxicity in BALB/c mouse implanted with mouse CT26 cells assessed as reduction in body weight at 50 mg/kg, IG administered every one day for 9 days and measured every 3 days. In kind it is organism-based. Conditions: in vivo, po, 216 h, time 9 day.
Data set [33] has as its system CT26. Description: Antitumor activity against mouse CT26 cells implanted in BALB/c mouse assessed as reduction in tumor volume at 50 mg/kg, IG administered every one day for 9 days and measured every 3 days by vernier caliper analysis relative to control. Format: functional, organism-based. Conditions: time 9.0 day.
Data set [34] deals with CT26. Briefly: Antitumor activity against mouse CT26 cells implanted in BALB/c mouse assessed as reduction in tumor weight at 50 mg/kg, IG administered every one day for 9 days and measured every 3 days by vernier caliper analysis. Format: functional, organism-based. As to conditions: time 9.0 day.
The test system of data set [35] is HEK293. Description: Cytotoxicity against HEK293 cells assessed as inhibition of cell growth at <10 uM incubated for 24 hrs by MTT assay. As to conditions: human, hek293, 24 h. Format: toxicity, cell-based.
In data set [36] the test system is CT26. Briefly: Downregulation of TNF-alpha expression in tumor of BALB/c mouse implanted with mouse CT26 cells at 12.5 to 50 mg/kg, IG administered every one day for 9 days by Hematoxylin staining based immunohistochemistry analysis. As to conditions: dose 12.5-50 mg/kg, time 9.0 day. In kind it is functional, organism-based.
Data set [37] deals with CT26. Briefly: Antitumor activity against mouse CT26 cells implanted in BALB/c mouse assessed as inhibition of tumor volume at 25 mg/kg, IG administered every one day for 9 days and measured every 3 days by vernier caliper analysis relative to control. In kind it is functional. As to conditions: CT26, po, 216 h, time 9 day.
Data set [38] can be described thus: Toxicity in BALB/c mouse implanted with mouse CT26 cells assessed as reduction in body weight at 12.5 to 50 mg/kg, IG administered every one day for 9 days and measured every 3 days. Format: organism-based. Conditions: in vivo, po, 216 h, dose 12.5-50 mg/kg, time 9 day.
Data set [39] deals with CT26. Briefly: Antitumor activity against mouse CT26 cells implanted in BALB/c mouse assessed as reduction in tumor volume at 12.5 to 50 mg/kg, IG administered every one day for 9 days and measured every 3 days by vernier caliper analysis. In kind it is functional, organism-based. Conditions: dose 12.5-50 mg/kg, time 9.0 day.
The target of data set [40] is T2, Tryptophan 2,3-dioxygenase. Briefly: Inhibition of TDO in HEK293-A cells transfected with pCMV-TDO2. Format: cell-based.
Target sequence in this assay (P48775 whole entry, the tested form may be a part): as above
The subject of data set [41] is CT26. Briefly: Downregulation of Foxp3 expression in tumor of BALB/c mouse implanted with mouse CT26 cells at 12.5 to 50 mg/kg, IG administered every one day for 9 days by Hematoxylin staining based immunohistochemistry analysis. In kind it is functional, organism-based. As to conditions: dose 12.5-50 mg/kg, time 9.0 day.
For data set [42], the system named is CT26. Description: Antitumor activity against mouse CT26 cells implanted in BALB/c mouse assessed as reduction in tumor weight at 12.5 to 50 mg/kg, IG administered every one day for 9 days and measured every 3 days by vernier caliper analysis. Format: functional, organism-based. Conditions: dose 12.5-50 mg/kg, time 9.0 day.
Data set [43] deals with CT26. Description: Upregulation of CD8 expression in tumor of BALB/c mouse implanted with mouse CT26 cells at 12.5 to 50 mg/kg, IG administered every one day for 9 days by Hematoxylin staining based immunohistochemistry analysis. Format: functional, organism-based. Conditions: dose 12.5-50 mg/kg, time 9.0 day.

Tyrosine-protein kinase JAK3 (Homo sapiens), sequence (P52333 whole entry, the tested form may be a part): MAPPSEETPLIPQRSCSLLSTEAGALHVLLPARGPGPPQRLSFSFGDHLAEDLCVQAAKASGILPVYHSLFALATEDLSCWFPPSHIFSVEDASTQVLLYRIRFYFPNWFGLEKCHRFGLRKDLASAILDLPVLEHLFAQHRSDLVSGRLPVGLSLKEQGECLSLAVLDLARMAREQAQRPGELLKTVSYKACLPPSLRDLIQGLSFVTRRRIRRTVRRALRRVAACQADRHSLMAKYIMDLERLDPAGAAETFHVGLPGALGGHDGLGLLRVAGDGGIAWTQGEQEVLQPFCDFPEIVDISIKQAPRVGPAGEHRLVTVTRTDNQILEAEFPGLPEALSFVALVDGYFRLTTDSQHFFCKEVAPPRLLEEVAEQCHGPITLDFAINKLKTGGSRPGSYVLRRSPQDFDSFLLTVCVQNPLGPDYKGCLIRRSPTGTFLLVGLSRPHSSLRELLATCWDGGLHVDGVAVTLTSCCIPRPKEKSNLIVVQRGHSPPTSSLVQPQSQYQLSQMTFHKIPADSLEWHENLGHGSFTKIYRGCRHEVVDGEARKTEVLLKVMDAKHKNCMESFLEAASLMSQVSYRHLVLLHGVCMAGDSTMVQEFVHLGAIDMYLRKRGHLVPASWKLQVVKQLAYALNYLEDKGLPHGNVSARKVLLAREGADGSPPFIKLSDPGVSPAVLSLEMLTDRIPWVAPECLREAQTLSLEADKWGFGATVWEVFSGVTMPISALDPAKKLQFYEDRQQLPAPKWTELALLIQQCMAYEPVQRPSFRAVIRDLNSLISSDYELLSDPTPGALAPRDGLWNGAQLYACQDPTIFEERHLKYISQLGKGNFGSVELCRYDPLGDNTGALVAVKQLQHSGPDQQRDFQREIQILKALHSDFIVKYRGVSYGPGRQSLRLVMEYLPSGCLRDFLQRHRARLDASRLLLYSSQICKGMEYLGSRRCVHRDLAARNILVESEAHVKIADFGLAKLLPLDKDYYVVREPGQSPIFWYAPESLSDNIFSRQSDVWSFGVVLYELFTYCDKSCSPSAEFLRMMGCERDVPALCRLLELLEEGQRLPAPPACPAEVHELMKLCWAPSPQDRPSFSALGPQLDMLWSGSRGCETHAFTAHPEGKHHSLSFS
Platelet-derived growth factor receptor alpha (Homo sapiens), sequence (P16234 whole entry): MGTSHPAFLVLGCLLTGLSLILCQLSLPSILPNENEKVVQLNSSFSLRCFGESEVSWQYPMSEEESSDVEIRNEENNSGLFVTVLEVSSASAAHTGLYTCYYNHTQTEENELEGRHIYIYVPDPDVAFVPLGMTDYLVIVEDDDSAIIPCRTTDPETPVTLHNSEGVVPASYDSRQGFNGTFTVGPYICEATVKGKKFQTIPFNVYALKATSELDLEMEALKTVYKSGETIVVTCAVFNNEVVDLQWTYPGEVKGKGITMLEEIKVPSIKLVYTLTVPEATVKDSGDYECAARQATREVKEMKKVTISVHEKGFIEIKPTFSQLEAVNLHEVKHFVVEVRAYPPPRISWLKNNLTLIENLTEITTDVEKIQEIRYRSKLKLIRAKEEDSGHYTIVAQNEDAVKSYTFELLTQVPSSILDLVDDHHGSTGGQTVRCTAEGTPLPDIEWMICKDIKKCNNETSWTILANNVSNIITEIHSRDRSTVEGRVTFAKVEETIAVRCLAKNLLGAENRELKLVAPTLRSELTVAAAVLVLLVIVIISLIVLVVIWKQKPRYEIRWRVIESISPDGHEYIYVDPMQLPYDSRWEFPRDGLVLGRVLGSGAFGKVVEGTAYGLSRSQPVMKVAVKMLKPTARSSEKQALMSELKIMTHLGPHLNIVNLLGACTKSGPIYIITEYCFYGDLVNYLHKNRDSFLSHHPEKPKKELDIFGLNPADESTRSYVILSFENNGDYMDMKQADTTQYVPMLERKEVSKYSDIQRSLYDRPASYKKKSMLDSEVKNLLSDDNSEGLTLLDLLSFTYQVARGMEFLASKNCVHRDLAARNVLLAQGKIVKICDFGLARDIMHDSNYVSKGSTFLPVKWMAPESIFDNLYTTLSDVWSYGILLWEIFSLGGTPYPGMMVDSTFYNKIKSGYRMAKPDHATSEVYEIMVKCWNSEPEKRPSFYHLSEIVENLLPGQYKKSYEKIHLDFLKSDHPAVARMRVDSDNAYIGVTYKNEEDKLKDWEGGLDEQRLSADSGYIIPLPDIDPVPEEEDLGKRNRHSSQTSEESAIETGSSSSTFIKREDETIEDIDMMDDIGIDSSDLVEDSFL
Tyrosine-protein kinase Yes (Homo sapiens), sequence (P07947 2-543 limits assumed): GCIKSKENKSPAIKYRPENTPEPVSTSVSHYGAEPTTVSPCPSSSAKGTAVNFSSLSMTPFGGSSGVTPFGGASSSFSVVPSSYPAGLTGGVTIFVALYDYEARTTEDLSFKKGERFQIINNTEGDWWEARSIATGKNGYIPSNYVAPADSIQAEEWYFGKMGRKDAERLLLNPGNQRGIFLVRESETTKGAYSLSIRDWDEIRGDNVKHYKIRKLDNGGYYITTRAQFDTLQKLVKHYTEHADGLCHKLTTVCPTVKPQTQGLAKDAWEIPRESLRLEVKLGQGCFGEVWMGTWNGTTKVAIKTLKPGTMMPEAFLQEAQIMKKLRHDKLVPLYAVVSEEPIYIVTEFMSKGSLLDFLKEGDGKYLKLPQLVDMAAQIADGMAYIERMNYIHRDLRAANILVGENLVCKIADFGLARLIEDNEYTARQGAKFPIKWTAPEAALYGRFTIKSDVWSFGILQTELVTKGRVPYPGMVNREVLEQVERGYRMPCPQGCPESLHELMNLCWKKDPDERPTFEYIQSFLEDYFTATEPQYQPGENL
Serine/threonine-protein kinase pim-1 (Homo sapiens), sequence (P11309 whole entry, looked up): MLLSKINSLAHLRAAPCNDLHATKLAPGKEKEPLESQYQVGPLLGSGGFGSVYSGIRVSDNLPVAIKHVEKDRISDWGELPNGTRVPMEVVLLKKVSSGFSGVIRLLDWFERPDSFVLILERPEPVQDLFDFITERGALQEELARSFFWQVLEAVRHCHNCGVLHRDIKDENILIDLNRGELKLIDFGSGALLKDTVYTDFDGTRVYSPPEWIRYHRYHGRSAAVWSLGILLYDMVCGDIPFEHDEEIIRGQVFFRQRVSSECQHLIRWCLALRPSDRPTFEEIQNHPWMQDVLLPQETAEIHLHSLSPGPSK

For `O=[N+]([O-])c1ccccc1CNc1cc(C(F)(F)F)cc2[nH]ncc12`, the IC50 in [1] was 9.01 µM; in [5], 7.76 µM; in data set [6], above 20 µM; in data set [13], 7.58 µM; in data set [19], 13.9 µM; in [20] it was 2.55 µM. The IC50 in [21] was above 20 µM; in data set [27], 2.35 µM. Moreover, the inhibition amounted to 4% in [2]; 78% in data set [3]; 27% in [4]; 31% in [7]; 100% in data set [8]; 0% in [9]. The inhibition in [10] was found to be 76%; in [11], 23%; in data set [12], 35%; in data set [14], 33%; in data set [15], 66%; in [16] it was 33%. Besides, the inhibition in data set [17] is 35%; in [18], 78%; in data set [22] it was 61%; in [23], 12%; in data set [24], 89%; in data set [25], 93%. Besides, the inhibition in [26] was 96%; in data set [28], 95%; in [29] it was 50%.

For the compound `NS(=O)(=O)NCCNc1nonc1/C(=N/O)Nc1ccc(F)c(Br)c1` [EPACADOSTAT], in data set [30], the inhibition in vivo at 30 mg/kg turned out to be 57.5%.

With `O=[N+]([O-])c1ccc(O)cc1CNc1cc(Br)cc2[nH]ncc12`, the concentration for half-maximal inhibition (IC50) in [1] was above 20 µM; in [5] it was above 20 µM; in data set [6], above 20 µM; in data set [13], above 20 µM; in data set [19], 0.91 µM; in data set [20] it was 0.46 µM. For the same compound, the IC50 in [21] and in data set [27] was above 20 µM each time. In addition, the inhibition in data set [10] was 98%; in data set [17] it was 92%; in data set [24] it was 96%; in data set [28] it was 99%. In data set [31], the inhibition in vivo at 50 mg/kg turned out to be 60.5%. In addition, the Activity result in data set [32] is on record as “Non-Toxic”. The result in [33] and in data set [34] was Active.

With `Cc1ccc(CNc2cc(C(F)(F)F)cc3[nH]ncc23)c([N+](=O)O)c1`, the IC50 is 1.34 µM in data set [1]; 0.54 µM in data set [5]; 37.4 µM in [6]; 5.08 µM in [13]; above 100 µM in [19]; 0.06 µM in data set [40]. Also, the IC50 in [20] turned out to be 0.62 µM; in data set [21] it was 7.25 µM; in data set [27] it was 3.43 µM. Moreover, the Activity result in [35] and in data set [38] was “Non-Toxic” in each case. Moreover, the inhibition in data set [10] was found to be 62%; in [17], 36%; in [24], 90%; in data set [28] it was 92%. Besides, the result in [36], in [39], in data set [41], in [42] and in data set [43] was Active. For the same compound, in [37], the inhibition in vivo at 25 mg/kg was 76.9%.
